Series [1] relates to Human fibroblasts, Detroit 551 ATCC CCL III. The series is described as follows: MTT cytotoxicity test on fibroblasts. Format: cell-based. To be noted: positive control, 0.5 mg/ml SDS. From the text: (§1) For this purpose the cell viability test using MTT (3-[4,5-dimethylthiazol-2-yl]-2,5-diphenyl tetrazolium bromide) [Mossman 1993] a colourimetric reagent, by means of which it is possible to distinguish between living, damaged or dead cells, being thus predictive of the safety of use of test substances, even “in vivo”, has been selected.
(§2) The following have been used: • human fibroblasts, Detroit 551 ATCC CCL III from LGC Promochem (Milan, Italy); • primary culture of human keratinocytes (HEKA), Cascade Biologics, cat.-005-5c.
(§3) In the study in question, CA has been previously dissolved and brought into contact with the selected cell cultures in such a manner as to directly reach the desired concentrations, i.e.: […]
(§4) As already mentioned, the key reagent is MTT, a yellow-coloured substance in aqueous solution which, when acted-on by the mitochondrial dehydrogenases present in viable cells, is transformed into purple crystals, insoluble in water, but soluble in acidified isopropanol. The absorbance of the resulting purple solution at […] is used as an indicator of the level of cytotoxicity of the substances under test.
(§5) In operational terms, the key reagent is prepared by adding 15 mg of MTT to 30 ml of culture medium. […] The plates are shaken for 20-30 minutes until a homogenous solution is formed, the absorbance of which is then read at […] with a background reading at 670 nm. […]
(In general: Tetrazolium assays rely on reduction of a dye to a coloured formazan, in cell work by metabolically active cells.)

Series [2] concerns primary culture of human keratinocytes (HEKA). As to the kind of experiment: MTT cytotoxicity test on keratinocytes. To be noted: positive control, 0.5 mg/ml SDS. The class given is cell-based.
From the text: as §1, §2, §3, §4, §5

The conditions of series [3]: exogenous hyaluronic acid, non cross-linked; cited from earlier work.
The subject of another series is mouse skin fibroblasts. To be noted: addition of HA to primary cultures; cited from earlier work.
Series [4] deals with extracellular matrix metalloproteases. To be noted: HA 1 mg/ml; cited from earlier work.
For series [5], the system named is Human fibroblasts, Detroit 551 ATCC CCL III. The series is described as follows: Stimulation of HA synthesis in human fibroblast cultures (EIA HA assay). Format: cell-based. To be noted: 48 h. From the text: The test has been conducted in two stages, i.e.: • stage A: in which the stimulation of HA expression by COMBI has been evaluated while maintaining the concentration constant and varying the reciprocal quantities of its components. The concentration used has been selected so as to enable comparison with the results derived from stage B; • stage B: in which the effect of CA on HA expression has been evaluated by varying its concentration and in comparison with doses consistent with its components. […] Human fibroblasts have been grown in suitable growth medium (Eagle's minimal essential medium) supplemented with 10% foetal calf serum (FCS), 1 mM sodium pyruvate, 2 mM glutamine, non-essential aminoacids and 50 μg/ml glutamycin. […] After 48 hours, the supernatant has been removed and used for the determination of the parameters of interest. The test has been conducted in duplicate and untreated cell cultures have been used as controls. HA has been assayed (dosed) by means of an immuno-enzymatic test using a commercially available kit (EIA, Corgenix). De novo HA synthesis has been evaluated in the culture medium following treatment with the test substances, according to the protocol provided with the test, and against the calibration curve obtained using the HA standard contained in the kit. […] • evaluation of the effects of the substances tested, at the various concentrations, on fibroblast cultures has been expressed as the absolute and percent increase or decrease of the HA expression, with respect to the corresponding control culture, after 48 hours of incubation. The percentage difference increase or decrease of the effects exerted by CA and NAG, at corresponding concentrations, have then been calculated, with evaluation of their potential significance by means of the Student's “t” test.

The test system is the same in series [6]. The series is described as follows: Stimulation of collagen synthesis in human fibroblast cultures (Sircol assay). Format: cell-based. To be noted: 24 h. From the text: The scope of the test has been the evaluation and the comparison of the potential stimulation exerted by the test substances on the expression of collagen and elastin in “in vitro” cultures of skin-derived cells, such as fibroblasts. The test in question, even though conducted “in vitro”, can be considered to be predictive of the effects of use of the same substances “in vivo”. […] The samples have been dissolved directly in the culture medium. Each sample has been tested in duplicate and the experiments have been repeated twice. The parameters of interest have been determined after 24 hours on separate plates. Untreated cell cultures have been used as controls. A commercially available kit (Sircol™, biodye science) which uses the capacity of the stain Sirius Red to interact with the basic side chains of the aminoacids present in collagen itself, has been used for collagen assays. De novo collagen synthesis has been evaluated in the culture medium following treatment with the test substances, following the protocol provided with the kit, and by using the calibration curve obtained employing the collagen standard contained in turn in the kit. Evaluation of the effects of the substances tested, at the various concentrations, on fibroblast cultures, has been expressed as the absolute and percent increase or decrease of collagen and elastin expression, with respect to the corresponding control culture, after 24 hours of incubation. The percentage difference increase or decrease of the effects exerted by CA and NAG, at corresponding concentrations, have then been calculated, with consequent evaluation of their potential statistical significance by means of the test Student “t” test.

For series [7] the test system is unchanged. As to the kind of experiment: Stimulation of elastin synthesis in human fibroblast cultures (Fastin assay). Format: cell-based. To be noted: 24 h. From the text:
The scope of the test has been the evaluation and the comparison of the potential stimulation exerted by the test substances on the expression of collagen and elastin in “in vitro” cultures of skin-derived cells, such as fibroblasts. The test in question, even though conducted “in vitro”, can be considered to be predictive of the effects of use of the same substances “in vivo”.
Human fibroblasts, Detroit 551 ATCC CCL III from LGC Promochem (Milan, Italy) have been used.
The substances and concentrations tested have been the same as those already described for stage B of the test on the stimulation of HA expression, i.e.: • CA: 0.66, 1.32, 1.98, 2.64 and 3.3 mg/ml • NAG: 0.5, 1.0, 1.5, 2.0 and 2.5 mg/ml • ASS: 0.16, 0.32, 0.48, 0.64 and 0.80 mg/ml
Cells have been plated out in 96 well plates, 2500 cells/well for 24 hours in cell growth medium ([…], DMEM)+10% foetal calf serum (FCS). Fresh culture medium, enriched with just 5% FCS and containing the substances to be tested, so as to reach the final concentrations desired, has then been added. The samples have been dissolved directly in the culture medium. Each sample has been tested in duplicate and the experiments have been repeated twice. The parameters of interest have been determined after 24 hours on separate plates. Untreated cell cultures have been used as controls.
Elastin has been assayed using a commercially available test (Fastin™, biodye science). The assay is based on the interaction of 5,10,15,20-tetraphenyl-21,23-porphyrin with elastin molecules.
De novo elastin synthesis has been evaluated in the culture medium following treatment with the test substances, following the protocol provided with the test, and by using the calibration curve obtained employing the elastin standard contained in the kit itself.
Evaluation of the effects of the substances tested, at the various concentrations, on fibroblast cultures, has been expressed as the absolute and percent increase or decrease of collagen and elastin expression, with respect to the corresponding control culture, after 24 hours of incubation.
The percentage difference increase or decrease of the effects exerted by CA and NAG, at corresponding concentrations, have then been calculated, with consequent evaluation of their potential statistical significance by means of the test Student “t” test.

`CCCCCCCCCCCCOS(=O)(=O)[O-].[Na+]` [SDS, sodium dodecylsulphate]: the cell mortality in series [1] was 96.05%. In addition, the “mortality of the keratinocyte culture” value in series [2] was 94.28%.
For the compound Hyaluronic acid [HA], the “half-life in the skin” value in series [3] is recorded as “less than 24 hours”. The “effect on DNA synthesis” value with mouse skin fibroblasts is given as “causes transient DNA synthesis”. Further, in series [4], the “expression of extracellular matrix metalloproteases” value was “clear increase”.
As to anhydrous sodium sulphate [ASS], the “HA (%) (Diff. from baseline)” value in series [5] (ASS 0.16 mg/ml) is given as “+6.07%”; in series [5] (ASS 0.32 mg/ml), “+7.99%”; in series [5] (ASS 0.48 mg/ml), “+9.38%”; in series [5] (ASS 0.64 mg/ml) it was −25.87%; in series [5] (ASS 0.80 mg/ml), “+1.91%”. In addition, the “HA(ng/well) (Diff. from baseline)” value was 35 ng/well in series [5] (ASS 0.16 mg/ml); 46 ng/well in series [5] (ASS 0.32 mg/ml); 54 ng/well in series [5] (ASS 0.48 mg/ml); −149 ng/well in series [5] (ASS 0.64 mg/ml); 11 ng/well in series [5] (ASS 0.80 mg/ml). Also, the “effect on HA expression (in words)” value in series [5] (ASS alone 0.16-0.80 mg/ml) is listed as “exerts no stimulation nor inhibition”. Also, the “Collagen (%) (Diff. from baseline)” value is −8.45% in series [6] (ASS 0.16 mg/ml); “+3.93%” in series [6] (ASS 0.32 mg/ml); “+1.77%” in series [6] (ASS 0.48 mg/ml); “+9.03%” in series [6] (ASS 0.64 mg/ml); −3.34% in series [6] (ASS 0.80 mg/ml). Moreover, the “Collagen(μg/ml) (Diff. from baseline)” value in series [6] (ASS 0.16 mg/ml) is -0.43 µg/mL; in series [6] (ASS 0.32 mg/ml), “+0.20 μg/ml”; in series [6] (ASS 0.48 mg/ml), “+0.09 μg/ml”; in series [6] (ASS 0.64 mg/ml), “+0.46 μg/ml”; in series [6] (ASS 0.80 mg/ml) it was -0.17 µg/mL. Further, in series [6] (ASS alone 0.16-0.80 mg/ml), the “effect on collagen expression (in words)” value is “exerts no type of stimulation or inhibition”. Further, the “Elastin (%) (Diff. from baseline)” value in series [7] (ASS 0.16 mg/ml) was −2.33%; in series [7] (ASS 0.32 mg/ml), “+1.98%”; in series [7] (ASS 0.48 mg/ml) it was “+9.75%”; in series [7] (ASS 0.64 mg/ml) it was −3.81%; in series [7] (ASS 0.80 mg/ml), −3.39%. Also, the “Elastin (μg/ml) (Diff. from baseline)” value in series [7] (ASS 0.16 mg/ml) was -0.11 µg/mL; in series [7] (ASS 0.32 mg/ml), “+0.07 μg/ml”; in series [7] (ASS 0.48 mg/ml), “+0.46 μg/ml”; in series [7] (ASS 0.64 mg/ml), -0.18 µg/mL; in series [7] (ASS 0.80 mg/ml) it was “+0.16 μg/ml”. For the same compound, the “Elastin (μg/ml) (Mean ± st. dev.)” value came out at 4.61 ± 0.41 µg/mL in series [7] (ASS 0.16 mg/ml); 4.79 ± 0.44 µg/mL in series [7] (ASS 0.32 mg/ml); 5.18 ± 0.36 µg/mL in series [7] (ASS 0.48 mg/ml); 4.54 ± 0.47 µg/mL in series [7] (ASS 0.64 mg/ml); 4.83 ± 0.30 µg/mL in series [7] (ASS 0.80 mg/ml). For the same compound, the “effect on elastin expression (in words)” value in series [7] (ASS alone 0.16-0.80 mg/ml) is recorded as “incapable of exerting any effect, either stimulatory or inhibitory”.

(Values after patent US20100028395A1, “COMPOSITIONS CONTAINING N-ACETYLGLUCOSAMINE FOR USE IN DERMO-COSMETOLOGY AND AESTHETIC MEDICINE” (ROTTAPHARM S.P.A., priority 2007, published 2010).)
